Here are results for 34 molecules from ChEMBL document CHEMBL1201862, “PubChem BioAssay data set” (2004).

Calls of active or inactive are those of the source.

Assay [1] has as its target T1, RNA-binding protein pos-1 (Caenorhabditis elegans, UniProt G5EF15).
T1 sequence (G5EF15 whole entry): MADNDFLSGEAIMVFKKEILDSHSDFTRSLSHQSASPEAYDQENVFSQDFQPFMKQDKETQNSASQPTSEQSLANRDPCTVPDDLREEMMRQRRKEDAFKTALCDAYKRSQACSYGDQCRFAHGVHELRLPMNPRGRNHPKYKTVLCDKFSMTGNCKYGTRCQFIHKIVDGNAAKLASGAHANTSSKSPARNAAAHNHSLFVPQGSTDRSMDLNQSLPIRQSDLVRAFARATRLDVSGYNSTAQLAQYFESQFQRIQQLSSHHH
As to the kind of experiment: inhibitors of POS-1/mex-3 RNA binding, dose response, biochemical, fluorescence polarization (AID 1964).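 Also: purified POS-1 fused to maltose binding protein made in E. coli; potency of compounds blocking POS-1 binding to fluorescent RNA.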

Assay [2] concerns the target T2, Zinc finger protein mex-5 (Caenorhabditis elegans, UniProt Q9XUB2).
T2 sequence (Q9XUB2 whole entry): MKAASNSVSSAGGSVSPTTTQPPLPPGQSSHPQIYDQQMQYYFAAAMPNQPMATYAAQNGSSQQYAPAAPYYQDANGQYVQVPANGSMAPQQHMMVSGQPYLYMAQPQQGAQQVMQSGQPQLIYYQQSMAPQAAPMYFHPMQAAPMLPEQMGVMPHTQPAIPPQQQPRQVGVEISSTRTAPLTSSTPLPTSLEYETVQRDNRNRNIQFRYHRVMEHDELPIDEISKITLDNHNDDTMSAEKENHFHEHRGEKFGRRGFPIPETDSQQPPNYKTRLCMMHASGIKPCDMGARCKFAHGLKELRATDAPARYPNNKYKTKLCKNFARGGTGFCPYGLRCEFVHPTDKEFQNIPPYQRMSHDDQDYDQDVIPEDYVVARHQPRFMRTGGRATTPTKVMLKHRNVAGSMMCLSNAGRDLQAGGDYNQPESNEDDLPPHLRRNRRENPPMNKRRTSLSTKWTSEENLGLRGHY
As to the kind of experiment: MEX-5/TCR-2 RNA interaction inhibitors, dose response, biochemical, C. elegans, fluorescence polarization (AID 1960).

Assay [3] is described as follows: inhibitors of firefly luciferase expression or activity, dose response, H4 neuroglioma cells, luminescence (AID 1990). The assay is classed as functional, cell-based.
Assay [4] can be described thus: Luminescence Cell-Based Dose Response HTS to Identify Inhibitors of 5'UTR Stem-Loop Driven Prion Protein mRNA Translation in H4 Neuroglioblastoma Cells. [Related pubchem assays: 1827 (Project Summary), 1813 (Primary HTS)]. The format is functional.
A short description of assay [5]: inhibitors of SNCA 5'UTR-driven reporter translation, confirmation, H4 neuroglioma cells, luminescence (AID 1988). The format is functional, cell-based.
Assay [6] has as its target Luciferin 4-monooxygenase (Photinus pyralis, UniProt P08659). As to the kind of experiment: firefly luciferase enzyme inhibitors, dose response, biochemical, luminescence (AID 1891).
Assay [7] is described as follows: Luminescence Cell-Based Dose Confirmation HTS to Identify Inhibitors of Platelet Dense Granule Release. [Related pubchem assays: 1663 (Primary HTS), 1678 (Summary of Project)]. The assay is classed as functional.
For the next assay, the target named is T3, Cytochrome P450 1A2 (Homo sapiens, UniProt P05177).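 Also: PubChem cytochrome P450 panel assay, CYP1A2 panel member.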
T3 sequence (P05177 whole entry): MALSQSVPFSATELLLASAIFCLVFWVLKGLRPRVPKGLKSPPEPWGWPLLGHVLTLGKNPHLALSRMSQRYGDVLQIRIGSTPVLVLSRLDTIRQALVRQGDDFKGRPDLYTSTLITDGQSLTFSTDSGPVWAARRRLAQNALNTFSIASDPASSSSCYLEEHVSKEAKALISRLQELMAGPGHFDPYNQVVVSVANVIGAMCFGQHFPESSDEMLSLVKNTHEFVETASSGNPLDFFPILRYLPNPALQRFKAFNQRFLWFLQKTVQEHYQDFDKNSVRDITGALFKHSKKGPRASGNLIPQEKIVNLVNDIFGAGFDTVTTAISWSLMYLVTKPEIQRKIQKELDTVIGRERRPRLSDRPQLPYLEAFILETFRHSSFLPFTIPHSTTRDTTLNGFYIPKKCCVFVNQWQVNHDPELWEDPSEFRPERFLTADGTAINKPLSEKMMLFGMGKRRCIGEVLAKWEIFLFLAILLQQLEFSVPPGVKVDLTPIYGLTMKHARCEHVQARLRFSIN

The next assay deals with Cytochrome P450 3A4 (Homo sapiens, UniProt P08684).
The nature of assay [8]: NIH-3T3 fibroblast cytotoxicity, dose response, cytotoxicity control, cell-based, fluorescence, Alamar Blue, secondary assay (AID 2327).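 Also: NIH-3T3 mouse fibroblasts cultured with fluconazole at 8 µg/mL.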 The assay is classed as functional.
Assay [9] can be described thus: C. albicans growth with fluconazole, confirmation, fluorescence, retest (AID 2467). The assay is classed as functional, cell-based.
In the next assay the test system is INS1. As to the kind of experiment: beta cell apoptosis inhibitors, cytokine rescue, dose response, luminescence, retest (AID 449756).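 Also: cell death triggered by IL-1 beta plus TNF-alpha plus IFN-gamma mixture; protective hits raise ATP signal compared with cytokine alone wells.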 The format is functional, cell-based. The settings on record: Rattus norvegicus.
A short description of assay [10]: inhibitors of intracellular T. cruzi replication, confirmation, NIH3T3 host cells, beta-gal luminescence (AID 2044).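 Also: intracellular parasites grown in NIH/3T3 mouse fibroblasts as host cells; luminescent beta-galactosidase reporter signal from transgenic T. cruzi replicating inside host cells; inhibitors lower the luminescence signal.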 The assay is classed as functional, cell-based.
A short description of assay [11]: cytotoxicity toward NIH3T3 fibroblasts, dose response, counter-screen, cell-based, ATP luminescence, mouse fibroblasts (AID 2010).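 Also: cells exposed to compound for about 90 hours before reading.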 The assay is classed as functional.
Assay [12] has as its system Streptococcus sp. 'group A'. As to the kind of experiment: growth inhibition of control SK(-) GAS strain, dose response, counter-screen for streptokinase expression inhibitor project, luminescence, kanamycin, BacTiterGlo, confirmation (AID 1900). The format is functional, organism-based.
Another assay deals with Streptococcus. As to the kind of experiment: Group A Streptococcus viability loss, dose response, counter-screen for streptokinase expression inhibitor project, luminescence, BacTiterGlo (AID 1915).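 Also: potency for reduction of bacterial viability or growth.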 The assay is classed as functional, organism-based.
The target of another assay is Cytochrome P450 2C9 (Homo sapiens, UniProt P11712).
The target of the next assay is Cytochrome P450 2C19 (Homo sapiens, UniProt P33261). As to the kind of experiment: Cytochrome panel assay with activity outcomes. Panel member name: p450-cyp2c19 Compounds with AC50 equal or less than 10 uM are considered active. The format is functional. The note with it: read-out: AC50.
Chain of Cytochrome P450 2C19 (P33261 whole entry): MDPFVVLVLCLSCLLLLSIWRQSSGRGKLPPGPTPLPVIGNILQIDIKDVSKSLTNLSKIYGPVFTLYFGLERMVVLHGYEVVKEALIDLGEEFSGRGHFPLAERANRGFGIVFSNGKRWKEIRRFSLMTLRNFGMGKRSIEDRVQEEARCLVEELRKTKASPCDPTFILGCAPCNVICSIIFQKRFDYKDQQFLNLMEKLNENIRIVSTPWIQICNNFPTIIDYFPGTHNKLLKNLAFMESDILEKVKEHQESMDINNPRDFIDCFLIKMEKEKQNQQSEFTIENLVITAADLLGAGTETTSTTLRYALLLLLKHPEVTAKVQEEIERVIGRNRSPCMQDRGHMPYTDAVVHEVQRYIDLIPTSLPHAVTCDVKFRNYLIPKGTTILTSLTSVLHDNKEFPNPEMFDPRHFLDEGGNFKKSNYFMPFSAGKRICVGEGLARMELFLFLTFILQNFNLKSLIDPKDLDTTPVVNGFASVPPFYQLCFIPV

Chain of Cytochrome P450 2C9 (P11712 whole entry): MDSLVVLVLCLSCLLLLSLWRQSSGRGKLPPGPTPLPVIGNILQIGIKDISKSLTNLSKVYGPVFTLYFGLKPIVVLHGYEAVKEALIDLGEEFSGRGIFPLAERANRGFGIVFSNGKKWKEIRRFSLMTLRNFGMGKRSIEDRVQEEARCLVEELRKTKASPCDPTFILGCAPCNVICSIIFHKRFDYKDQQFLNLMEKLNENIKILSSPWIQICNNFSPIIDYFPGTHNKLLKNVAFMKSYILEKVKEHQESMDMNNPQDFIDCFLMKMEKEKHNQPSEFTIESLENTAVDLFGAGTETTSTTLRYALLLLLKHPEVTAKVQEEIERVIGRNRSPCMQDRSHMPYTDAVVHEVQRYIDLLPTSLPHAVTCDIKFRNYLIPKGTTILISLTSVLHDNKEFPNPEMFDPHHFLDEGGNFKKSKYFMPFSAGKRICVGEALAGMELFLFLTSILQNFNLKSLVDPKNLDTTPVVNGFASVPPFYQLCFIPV
Chain of Cytochrome P450 3A4 (P08684 whole entry): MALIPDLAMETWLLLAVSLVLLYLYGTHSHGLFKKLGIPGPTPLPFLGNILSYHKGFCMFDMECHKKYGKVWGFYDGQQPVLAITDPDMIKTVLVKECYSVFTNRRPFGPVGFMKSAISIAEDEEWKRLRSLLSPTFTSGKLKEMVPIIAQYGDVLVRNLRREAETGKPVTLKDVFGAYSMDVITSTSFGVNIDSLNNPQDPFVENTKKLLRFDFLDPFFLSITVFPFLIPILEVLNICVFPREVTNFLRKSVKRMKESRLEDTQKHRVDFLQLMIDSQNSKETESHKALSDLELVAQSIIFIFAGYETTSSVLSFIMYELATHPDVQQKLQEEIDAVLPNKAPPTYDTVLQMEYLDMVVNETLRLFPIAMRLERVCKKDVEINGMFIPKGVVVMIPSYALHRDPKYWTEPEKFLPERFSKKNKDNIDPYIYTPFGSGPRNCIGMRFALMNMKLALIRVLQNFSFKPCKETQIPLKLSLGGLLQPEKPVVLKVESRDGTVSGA
Chain of Luciferin 4-monooxygenase (P08659 whole entry): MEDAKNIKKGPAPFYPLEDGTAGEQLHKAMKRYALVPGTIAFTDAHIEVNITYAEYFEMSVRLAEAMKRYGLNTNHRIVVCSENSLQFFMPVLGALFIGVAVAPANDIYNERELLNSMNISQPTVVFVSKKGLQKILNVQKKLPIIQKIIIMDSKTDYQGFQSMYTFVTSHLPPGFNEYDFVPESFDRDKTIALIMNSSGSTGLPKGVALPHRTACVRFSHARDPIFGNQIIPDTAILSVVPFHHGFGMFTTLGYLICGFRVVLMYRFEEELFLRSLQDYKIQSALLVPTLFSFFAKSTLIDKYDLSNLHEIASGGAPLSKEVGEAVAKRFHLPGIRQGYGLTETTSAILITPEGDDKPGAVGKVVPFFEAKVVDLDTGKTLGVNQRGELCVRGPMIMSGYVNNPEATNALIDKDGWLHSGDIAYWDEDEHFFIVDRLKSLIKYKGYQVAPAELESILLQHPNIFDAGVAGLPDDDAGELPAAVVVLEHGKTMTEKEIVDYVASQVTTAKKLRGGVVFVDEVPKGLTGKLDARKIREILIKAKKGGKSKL

Take `CCCCCCN1C(=O)/C(=C/Nc2ccccc2N2CCOCC2)C(=O)NC1=S`: the EC50 in assay [1] was > 300 µM (not active); in assay [2] it was > 300 µM (inconclusive).
For `C/C(=N/N=C(\C)c1ccccc1O)c1ccccc1O`, the EC50 in assay [1] is > 300 µM (not active); in assay [2] it was > 300 µM (inconclusive).
Turning to `O=C(O)CCc1ccc(-c2ccccc2)n1-c1cccc(C(=O)O)c1`, the EC50 in [1] and in [2] was > 300 µM (not active) in each case.
On to `Cc1ccc(C)c(N(CC(=O)Nc2ccccc2C(=O)NCc2ccco2)S(=O)(=O)c2ccccc2)c1`, for which the EC50 in assay [3] was 15.6 µM (active); in [4], > 120 µM (not active); in [5], > 120 µM (not active).
Take `COc1ccccc1C(=O)NCCC(=O)Nc1ncccc1O`: the EC50 in assay [6] and in assay [7] was > 112 µM (not active) in each case.
As for `Cc1nnc(SCC(=O)NCC2CCCCC2)n(N)c1=O`, the AC50 on Cytochrome P450 1A2 and on Cytochrome P450 3A4 was 25.1 µM (inconclusive) in each case.
As for `Cc1cc(NC(=O)/C=C/c2cccc(Cl)c2)n(-c2nc3ccccc3[nH]2)n1`, the figures for the EC50 in assay [6] and in assay [7] were > 112 µM (not active) and 49.7 µM (active), respectively.
Take `CCOc1cccc(-c2c(C(=O)N/N=C/c3ccc(C)s3)nnn2-c2nonc2N)c1`: the EC50 in assay [6] and in assay [7] was > 112 µM (not active) in each case.
For `COc1ccc(-c2cn3c([n+]2-c2ccccc2)CCCCC3)cc1`, the EC50 in [8] is > 150 µM (inactive); in [9], 2.53 µM (active). Further, in the assay with INS1, the AC50 is 2.58 µM (active).
`COc1ccccc1N1CCN(C(=O)c2cc(-c3ccccc3O)on2)CC1`: the EC50 in [6] and in [7] was > 112 µM (not active) each time.
For `CCOC(=O)c1ccc2nc(NC(=O)c3cccs3)sc2c1`, the EC50 was 0.729 µM (active) in [6] and 10.7 µM (active) in assay [7].
Consider `Cc1cccc(NC(=S)N/N=C(\c2ccccc2)C(C)C)c1`, for which the EC50 is > 150 µM (inconclusive) in assay [8] and 3.98 µM (active) in [9].
For the molecule `Nc1nc(NCCc2ccccc2)nc(NCCO)c1[N+](=O)[O-]`, the EC50 is 19.1 µM (active) in assay [3], > 120 µM (not active) in [4] and 39.1 µM (active) in assay [5].
`COc1ccc(CCNCc2ccc(OCC(=O)N3CCCCC3)c(OC)c2)cc1OC`: the EC50 in assay [6] is > 112 µM (not active); in [7], 16.3 µM (active); in assay [10], 0.133 µM (active); in [11] it was > 60 µM (inconclusive).
As to `CCOC(=O)C1=C(C)OC(N)=C(C#N)C1C1CCCCC1` (centres undefined), the EC50 in assay [6] and in assay [7] was > 112 µM (not active) throughout.
In the case of `CCCCN(C)S(=O)(=O)c1ccc(C(=O)Nc2nnc(-c3cccs3)o2)cc1`, the EC50 is > 150 µM (inactive) in assay [8]; 0.68 µM (active) in [12]; 0.861 µM (active) in [9]; 1.09 µM (active) in assay [10]; 8 µM (active) in assay [11]; 3.65 µM (active) in the assay on Streptococcus.
For `CC(C)NC(=O)c1ccccc1NC(=O)/C=C/c1ccc([N+](=O)[O-])cc1`, the AC50 at Cytochrome P450 3A4 is 35.5 µM (inconclusive); at Cytochrome P450 2C9 it was 2 µM (inconclusive).
Turning to `COc1ccc(/C=C/CN2CCCC(CO)(Cc3cccc(Cl)c3)C2)cc1` (centres undefined), the EC50 in [6] and in assay [7] was > 112 µM (not active) each time.
For `Cc1ccc(NC(=O)C2C(C(=O)O)C3C=CC2C32CC2)cc1` (centres undefined), the EC50 is 46.2 µM (active) in assay [8] and > 38 µM (not active) in assay [9].
For the molecule `Cc1ccc(C2C(C(=O)c3ccccc3)=C(O)C(=O)N2CCN2CCOCC2)o1` (centres undefined), the AC50 was 14.1 µM (inconclusive) at Cytochrome P450 2C19, 25.1 µM (inconclusive) on Cytochrome P450 3A4 and 7.08 µM (inconclusive) at Cytochrome P450 2C9.
Turning to `O=C(c1ccoc1)N1CCC2(CC1)Oc1ccc(F)cc1C(=O)C21CC(c2ccccc2)=NO1` (centres undefined), the half-maximal effective concentration (EC50) in [8] is > 150 µM (inconclusive); in [9] it was 1.18 µM (active).
Turning to `CCc1nc(SCC(=O)Nc2cccc(C(F)(F)F)c2)c2c(=O)n(C)c(=O)n(C)c2n1`, the EC50 in assay [3] is 19.1 µM (active); in [4], 16.4 µM (active); in assay [5], 15.9 µM (active).
As to `O=C(Cn1cc2c(n1)CCCC2)NCc1cccc(Cl)c1`, the EC50 in assay [3], in assay [4] and in assay [5] was > 120 µM (not active) each time.
Turning to `COCCCNc1nc(N)c([N+](=O)[O-])c(NCc2ccccc2)n1`, the EC50 in [3] was 19.4 µM (active); in assay [4], > 120 µM (not active); in assay [5], 14.2 µM (active).
Consider `Cc1cc(N)n2nc(-c3ccc(C(C)(C)C)cc3)cc2n1`, for which the EC50 in [6] is 0.401 µM (active); in assay [7], 2.35 µM (active).
For `O=C(O)c1ccc(COc2cccc(CO)c2)cc1`, the half-maximal effective concentration (EC50) in assay [6] was 44.4 µM (active); in assay [7], 4.38 µM (active).
In the case of `COc1ccc(CCNC(=O)Cn2c(=O)oc3ccccc32)cc1OC`, the AC50 was 12.6 µM (inconclusive) on Cytochrome P450 1A2, 22.4 µM (inconclusive) on Cytochrome P450 3A4 and 2.51 µM (inconclusive) on Cytochrome P450 2C9.
Regarding `COc1cccc(OC)c1C(=O)Nc1cc(C)on1`, the figures for the AC50 on Cytochrome P450 2C19, at Cytochrome P450 1A2 and on Cytochrome P450 3A4 were 39.8 µM (inconclusive), 22.4 µM (inconclusive) and 20 µM (inconclusive), respectively.
On to `Cn1cc(S(=O)(=O)N2CCOCC2)cc1C(=O)Nc1ccc(Cl)cc1`, for which the EC50 in [6] and in [7] was > 112 µM (not active) in each case.
With `O=C(CN1CCN(Cc2ccccc2)CC1)N1CCCc2c1c(=O)oc1ccc(O)cc21`, the values for the half-maximal activity concentration (AC50) on Cytochrome P450 1A2 and at Cytochrome P450 3A4 were 6.31 µM (inconclusive) and 3.98 µM (inconclusive), respectively.
As for `Cc1cc(CSc2ccccc2)ccc1NC(=O)COc1ccccc1`, the AC50 on Cytochrome P450 2C19 is 2.24 µM (inconclusive); on Cytochrome P450 1A2, 7.08 µM (inconclusive); at Cytochrome P450 3A4, 12.6 µM (inconclusive).
Consider `O=C(NCc1ccco1)c1ccc(-c2ccccc2Cl)o1`, for which the EC50 in assay [6] and in assay [7] was > 112 µM (not active) in each case.
On to `Cc1nc(O)nc(O)c1/C=N/NC(=O)CCNC(=O)OC(C)(C)C`, for which the EC50 in assay [6] and in assay [7] was > 112 µM (not active) throughout.
Regarding `CC1CCCCN1Cc1nc2c(c(=O)n(C)c(=O)n2C)n1CCc1ccccc1` (centres undefined), the EC50 in assay [6] and in assay [7] was > 112 µM (not active) throughout.
